The source of these data is PMC4230215, “Lipolytic Potential of Aspergillus japonicus LAB01: Production, Partial Purification, and Characterisation of an Extracellular Lipase” (BioMed Research International, 2014).

The subject of this assay is T1, extracellular lipase from A. japonicus LAB01.
T1 construct: about 25 kDa on SDS-PAGE
Description: spectrophotometric p-nitrophenol release at […] nm, Michaelis-Menten hyperbola regression. In kind it is biochemical, Aspergillus japonicus. The settings on record: Tris-HCl pH 8.0, 37 °C, Triton X-100 and gum arabic emulsion, 2-propanol; 0-1.4 mM substrate; partially purified enzyme; read-out: apparent KM.

As for `CCCCCCCCCCCCCCCC(=O)Oc1ccc([N+](=O)[O-])cc1` [p-NPP, p-nitrophenyl palmitate], the Km (commonly the concentration of substrate that gives half-maximal velocity) was 130 µM.
